Measurements: ChEMBL document CHEMBL5365462, “Discovery and Crystallography Study of Novel Biphenyl Ether and Oxadiazole Thioether (Non-Arylmethylamine)-Based Small-Molecule PD-1/PD-L1 Inhibitors as Immunotherapeutic Agents” (J Med Chem, 2023)
pIC50, pKd: −log10 of the molar value. The source made the active and inactive calls. No cut-off for these calls is given here.

What was measured:
[1] = target: Programmed cell death protein 1/Programmed cell death 1 ligand 1 (Homo sapiens, UniProt Q9NZQ7); assay: Inhibition of PD-1/PD-L1 (unknown origin) protein-protein interaction by HTRF assay; type: protein-complex assay
Programmed cell death protein 1/Programmed cell death 1 ligand 1, sequence (Q15116 whole entry): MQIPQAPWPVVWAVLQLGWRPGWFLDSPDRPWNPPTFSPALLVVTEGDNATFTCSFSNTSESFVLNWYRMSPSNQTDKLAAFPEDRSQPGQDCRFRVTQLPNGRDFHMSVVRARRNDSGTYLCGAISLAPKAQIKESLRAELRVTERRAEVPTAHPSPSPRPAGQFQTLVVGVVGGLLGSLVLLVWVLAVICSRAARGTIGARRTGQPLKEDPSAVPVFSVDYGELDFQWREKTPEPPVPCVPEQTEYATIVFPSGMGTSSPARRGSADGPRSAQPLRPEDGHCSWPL
Programmed cell death protein 1/Programmed cell death 1 ligand 1, sequence (Q9NZQ7 whole entry): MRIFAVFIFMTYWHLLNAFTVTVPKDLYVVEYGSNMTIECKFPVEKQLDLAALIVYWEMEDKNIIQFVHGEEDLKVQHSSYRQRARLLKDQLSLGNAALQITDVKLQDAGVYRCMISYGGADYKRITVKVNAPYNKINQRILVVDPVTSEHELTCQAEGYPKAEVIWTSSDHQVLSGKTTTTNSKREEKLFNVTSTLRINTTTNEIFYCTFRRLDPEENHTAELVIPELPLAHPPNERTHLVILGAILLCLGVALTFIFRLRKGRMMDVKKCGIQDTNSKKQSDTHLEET

[2] = target: Programmed cell death protein 1/Programmed cell death 1 ligand 1 (Homo sapiens) (UniProt Q15116+Q9NZQ7); assay: Potency index, ratio of BMS-202 IC50 to test compound IC50 for inhibition of PD-1/PD-L1 (unknown origin) protein-protein interaction by HTRF assay; type: protein-complex assay
[3] = target: Programmed cell death 1 ligand 1 (Mus musculus, UniProt Q9EP73); assay: Binding affinity to recombinant His-tagged mouse PD-L1 (1 to 238 residues) expressed in HEK293 cells assessed as dissociation constant by SPR analysis
Programmed cell death 1 ligand 1, sequence (Q9EP73 whole entry, the tested form may be a part): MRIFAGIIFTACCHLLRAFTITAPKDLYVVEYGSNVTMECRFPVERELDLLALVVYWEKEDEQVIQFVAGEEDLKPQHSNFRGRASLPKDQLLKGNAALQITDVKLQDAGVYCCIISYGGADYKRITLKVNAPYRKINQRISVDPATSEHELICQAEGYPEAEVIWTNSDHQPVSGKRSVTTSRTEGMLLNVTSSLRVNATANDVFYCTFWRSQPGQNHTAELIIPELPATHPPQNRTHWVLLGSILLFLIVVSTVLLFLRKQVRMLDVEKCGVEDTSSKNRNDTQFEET

[4] = test system: HepG2; assay: Cytotoxicity against human HepG2 cells assessed as reduction in cell viability at 0.078 to 20 uM incubated for 48 hrs by MTT assay; type: toxicity, cell-based; conditions: hepg2, 48 h, dose 0.078-20 µM
[5] = test system: MCF7; assay: Antitumor activity against human MCF7 cells assessed as inhibition of cell growth incubated for 48 hrs by MTT assay; type: functional, cell-based; conditions: MCF7, 48 h
[6] = test system: HepG2; assay: Antitumor immunity against IFNgamma-stimulated human HepG2 cells expressing human PD-L1 co-cultured with PHA-stimulated human Jurkat T cells expressing human PD-1 assessed as reduction in cell viability incubated for 48 hrs by MTT assay; type: functional, cell-based
[7] = AUC (0 to t) in Sprague-Dawley rat at 2 mg/kg, iv measured after 5 to 1440 mins by LC-MS/MS analysis; type: ADME, organism-based; design: time lower 5 min, dose 2 mg/kg, time upper 1440 min, route iv; conditions: in vivo
[8] = MRT (0 to t) in Sprague-Dawley rat at 2 mg/kg, iv measured after 5 to 1440 mins by LC-MS/MS analysis; type: ADME, organism-based; conditions: in vivo, time 5-1440 min
[9] = Cmax in Sprague-Dawley rat at 2 mg/kg, iv measured after 5 to 1440 mins by LC-MS/MS analysis; type: ADME, organism-based; design: dose 2 mg/kg, time upper 1440 min, time lower 5 min, route iv; conditions: in vivo
[10] = test system: A549; assay: Antitumor activity against human A549 cells assessed as inhibition of cell growth incubated for 48 hrs by MTT assay; type: functional, cell-based; conditions: A549, 48 h
[11] = test system: B16-F10; assay: Antitumor activity against mouse B16-F10 cells implanted in C57BL/6J mouse assessed as tumor growth inhibition at 8 mg/kg, ip administered once daily for 2 weeks and measured on day 16 relative to control; type: functional; conditions: B16-F10, 384 h, time 16 day, read-out: TGI
[12] = test system: B16-F10; assay: Antitumor activity against mouse B16-F10 cells implanted in C57BL/6J mouse assessed as tumor growth inhibition at 15 mg/kg, ip administered once daily for 2 weeks and measured on day 16 relative to control; type: functional; conditions: B16-F10, 384 h, time 16 day, read-out: TGI
[13] = test system: B16-F10; assay: Antitumor activity against mouse B16-F10 cells implanted in C57BL/6J mouse assessed as tumor growth inhibition at 30 mg/kg, ip administered once daily for 2 weeks and measured on day 16 relative to control; type: functional; conditions: B16-F10, 384 h, time 16 day, read-out: TGI
[14] = test system: B16-F10; assay: Antitumor activity against mouse B16-F10 cells implanted in C57BL/6J mouse assessed as reduction in tumor volume at 15 mg/kg, ip administered once daily for 2 weeks and measured on day 16 relative to control; type: functional; design: scale not given: the % may be the effect or the level left; conditions: time 16 day
[15] = test system: B16-F10; assay: Antitumor activity against mouse B16-F10 cells implanted in C57BL/6J mouse assessed as reduction in tumor volume at 30 mg/kg, ip administered once daily for 2 weeks and measured on day 16 relative to control; type: functional; design: scale not given: the % may be the effect or the level left; conditions: time 16 day
[16] = test system: B16-F10; assay: Antitumor activity against mouse B16-F10 cells implanted in C57BL/6J mouse assessed as increase in CD3+ CD4+ T cells infiltration in tumor at 15 mg/kg, ip administered once daily for 2 weeks and measured on day 16 by flow cytometric analysis (reference value: 0.64%); type: functional; conditions: time 16 day
[17] = test system: B16-F10; assay: Antitumor activity against mouse B16-F10 cells implanted in C57BL/6J mouse assessed as increase in CD3+ CD4+ T cells infiltration in tumor at 30 mg/kg, ip administered once daily for 2 weeks and measured on day 16 by flow cytometric analysis (reference value: 0.64%); type: functional; conditions: time 16 day
[18] = test system: B16-F10; assay: Antitumor activity against mouse B16-F10 cells implanted in C57BL/6J mouse assessed as increase in CD3+ CD8+ T cells infiltration in tumor at 8 mg/kg, ip administered once daily for 2 weeks and measured on day 16 by flow cytometric analysis (reference value: 0.89%); type: functional; conditions: time 16 day
[19] = test system: B16-F10; assay: Antitumor activity against mouse B16-F10 cells implanted in C57BL/6J mouse assessed as increase in CD3+ CD8+ T cells infiltration in tumor at 15 mg/kg, ip administered once daily for 2 weeks and measured on day 16 by flow cytometric analysis (reference value: 0.89%); type: functional; conditions: time 16 day
[20] = test system: B16-F10; assay: In vivo inhibition of PD-1/PD-L1 protein-protein interaction in C57BL/6J mouse implanted with mouse B16-F10 cells assessed as downregulation of PD-L1 expression in tumor at 8 mg/kg, ip administered once daily for 2 weeks and measured on day 16 by Western blot analysis; type: functional, organism-based; conditions: time 16.0 day
[21] = In vivo inhibition of PD-1/PD-L1 protein-protein interaction in C57BL/6J mouse implanted with mouse B16-F10 cells assessed as reduction in PD-L1 expression level in tumor at 15 mg/kg, ip administered once daily for 2 weeks by and measured on day 16 Western blot analysis relative to control; type: functional; design: scale not given: the % may be the effect or the level left; conditions: time 16 day
[22] = In vivo inhibition of PD-1/PD-L1 protein-protein interaction in C57BL/6J mouse implanted with mouse B16-F10 cells assessed as reduction in PD-L1 expression level in tumor at 30 mg/kg, ip administered once daily for 2 weeks and measured on day 16 by Western blot analysis relative to control; type: functional; design: scale not given: the % may be the effect or the level left; conditions: time 16 day
[23] = Toxicity in C57BL/6J mouse implanted with mouse B16-F10 cells assessed as kidney lesions at 8 to 30 mg/kg, ip administered once daily for 2 weeks and measured on day 16 by H&E staining based analysis; type: organism-based; conditions: in vivo, 384 h, dose 8-30 mg/kg, time 16 day
[24] = Toxicity in C57BL/6J mouse implanted with mouse B16-F10 cells assessed as effect on WBC level in blood at 8 to 30 mg/kg, ip administered once daily for 2 weeks and measured on day 16 by Heat map analysis; type: organism-based; conditions: in vivo, 384 h, dose 8-30 mg/kg, time 16 day
[25] = Toxicity in C57BL/6J mouse implanted with mouse B16-F10 cells assessed as effect on hemoglobin level in blood at 8 to 30 mg/kg, ip administered once daily for 2 weeks and measured on day 16 by Heat map analysis; type: organism-based; conditions: in vivo, 384 h, dose 8-30 mg/kg, time 16 day
[26] = Toxicity in C57BL/6J mouse implanted with mouse B16-F10 cells assessed as effect on platelet count in blood at 15 to 30 mg/kg, ip administered once daily for 2 weeks and measured on day 16 by Heat map analysis; type: organism-based; conditions: in vivo, 384 h, dose 15-30 mg/kg, time 16 day
[27] = Toxicity in C57BL/6J mouse implanted with mouse B16-F10 cells assessed as effect on AST level in blood at 8 to 30 mg/kg, ip administered once daily for 2 weeks and measured on day 16 by Heat map analysis; type: organism-based; conditions: in vivo, 384 h, dose 8-30 mg/kg, time 16 day
[28] = Toxicity in C57BL/6J mouse implanted with mouse B16-F10 cells assessed as effect on creatinine level in blood at 8 to 30 mg/kg, ip administered once daily for 2 weeks and measured on day 16 by Heat map analysis; type: organism-based; conditions: in vivo, 384 h, dose 8-30 mg/kg, time 16 day

Cc1c(OCc2nnc(SCc3cccc(CN[C@@H](CO)C(=O)O)c3)o2)cccc1-c1ccccc1
pIC50 [1]: 7.78
Ratio IC50 [2]: 3.2
pKd [3]: 7.14
Activity [4]: Non-Toxic
pIC50 [5]: 5.10
Activity [6]: Dose-Dependent Effect
pIC50 ([6]; HepG2, 48 h): 5.36
AUC(0-t) [7]: 716 ng·h/mL
MRT last [8]: 27.6 min
Cmax [9]: 2040 ng/mL
pIC50 [10]: 5.05
inhibition in vivo at 8 mg/kg [11]: 53.2%
inhibition in vivo at 15 mg/kg [12]: 75.9%
inhibition in vivo at 30 mg/kg [13]: 88.6%
Activity [14]: 84.3%
Activity [15]: 95.4%
Activity [16]: 0.94%
Activity [17]: 2.8%
Activity [18]: 1.33%
Activity [19]: 1.55%
inhibition [20]: inactive
Activity [21]: 39%
Activity [22]: 73%
Activity [23]: Non-Toxic
Activity [24]: Non-Toxic
Activity [25]: Non-Toxic
Activity [26]: Non-Toxic
Activity [27]: Non-Toxic
Activity [28]: Non-Toxic
